Holding throughout (test): NADP+ reduction at […] nm, Michaelis-Menten fit
Holding throughout (type): biochemical
Holding throughout (details): NADP+ (0.5 mM in standard assay), 50 mM Tris-HCl pH 8.0, 25 °C

In one test the test system is T1, S1-a-2.
T1 construct: full-length, GST fusion (pGEX-6P-1) expressed in E. coli BL21, GST tag cut off with PreScission protease; raw reads SRA SRP079591

For a further test, the system named is T2, S1-a-1.
T2 construct: full-length, GST fusion (pGEX-6P-1) expressed in E. coli BL21, GST tag cut off with PreScission protease; raw reads SRA SRP079591

The next test concerns T3, H1-a-1.
T3 construct: full-length, GST fusion (pGEX-6P-1) expressed in E. coli BL21, GST tag cut off with PreScission protease; raw reads SRA SRP079591

The test system of another test is T4, Y1-a-1.
T4 construct: full-length, GST fusion (pGEX-6P-1) expressed in E. coli BL21, GST tag cut off with PreScission protease; raw reads SRA SRP079591

For the next test, the system named is T5, H1-a-2.
T5 construct: full-length, GST fusion (pGEX-6P-1) expressed in E. coli BL21, GST tag cut off with PreScission protease; raw reads SRA SRP079591

The next test concerns T6, Y1-b-1.
T6 construct: full-length, GST fusion (pGEX-6P-1) expressed in E. coli BL21, GST tag cut off with PreScission protease; raw reads SRA SRP079591

In the case of `C[C@H](CCC(=O)NCCS(=O)(=O)O)[C@H]1CC[C@H]2[C@@H]3[C@H](O)C[C@@H]4C[C@H](O)CC[C@]4(C)[C@H]3CC[C@]12C` [TCDCA], the Km was 263 µM in the test on S1-a-2; 132 µM in the test with S1-a-1; 390 µM with H1-a-1; 556 µM in the test with Y1-a-1; 695 µM in the test with H1-a-2.

In the case of `C[C@H](CCC(=O)NCCS(=O)(=O)O)[C@H]1CC[C@H]2[C@@H]3[C@@H](O)C[C@@H]4C[C@H](O)CC[C@]4(C)[C@H]3CC[C@]12C` [TUDCA], the Km in the test on Y1-b-1 was 6150 µM.

Usually Km stands for the concentration of substrate that gives half-maximal velocity.
